Read-outs that look alike come from different tables or passages of the source.

Data set [1] is described as follows: Measurement of ABTS radical scavenging activity. Type of data set: biochemical. As to conditions: for IC50: ABTS method, room temperature, dark; for β/α value: IC50 after 40 minutes (β) divided by IC50 after 20 minutes (α), ABTS radical scavenging. As to the method:
To evaluate the antioxidant activity of saclipin A and saclipin B, 2,2-azino-bis(3-ethylbenzothiazoline-6-sulfonic acid) diammonium salt (ABTS) radical scavenging activity was measured.
The ABTS radical solution was diluted with ethanol such that the absorbance at 734 nm was about 1.0. 50 µL of this diluted ABTS radical solution and 50 µL of the test sample ethanol solution were mixed, and the mixed reactant was held at room temperature for 20 or 40 minutes in the dark, then the absorbance was measured at 734 nm. […] Ascorbic acid and Trolox were used as standard samples. Inhibition rates were calculated using the following equation. Inhibition activity (%) = ((Ab−As)/Ab) × 100 [formula]
Here, Ab and As represent the absorbances of the blank sample and the test sample, respectively.

A short description of data set [2]: Time course experiment of ABTS radical scavenging (temporal change in antioxidant activity). The data set is classed as biochemical. As to conditions: recorded for 2900 seconds at 25°C, 734 nm; saclipin A 0.60 mM, saclipin B 0.18 mM, ascorbic acid 6 µM, Trolox 6 µM. As to the method:
A 7 mM ABTS aqueous solution and a 2.45 mM potassium persulfate aqueous solution were mixed at 25°C for 16 hours in the dark to prepare an ABTS radical solution. The ABTS radical solution was diluted with ethanol such that the absorbance at 734 nm was about 1.0. 50 µL of this diluted ABTS radical solution and 50 µL of the test sample ethanol solution were mixed, and the mixed reactant was held at room temperature for 20 or 40 minutes in the dark, then the absorbance was measured at 734 nm. The final reaction concentration of the sample was adjusted to 0 mM, 0.06 mM, 0.12 mM, 0.18 mM, 0.24 mM, 0.30 mM, 0.60 mM, 1.20 mM, and 1.80 mM. Ascorbic acid and Trolox were used as standard samples. Inhibition rates were calculated using the following equation. Inhibition activity (%) = ((Ab−As)/Ab) × 100 [formula]
Therefore, the temporal change of radical scavenging was measured by a time course experiment. In the time course experiment, the decrease in absorbance after addition of the test sample was recorded continuously for 2900 seconds at 25°C and 734 nm. In the time course experiment, the final reaction concentrations of saclipin A, saclipin B, ascorbic acid, and Trolox were adjusted to 0.60 mM, 0.18 mM, 6 µM, and 6 µM, respectively.

For a further data set, the system named is elastin. Put plainly: Elastin anti-glycation assay kit. The data set is classed as biochemical. Conditions: for IC50: sample dissolved in DMSO, read-out: IC50 value, inhibition effect on the glycation reaction of elastin. The method, then: (§1) To evaluate the anti-glycation activity of saclipin A and saclipin B, the effect on glycation of elastin and collagen was investigated.
(§2) The effect of saclipin on the glycation of elastin and collagen was evaluated using an elastin anti-glycation assay kit (product number: AAS-AGE-K05, Cosmo Bio Co., Ltd.) and a collagen anti-glycation assay kit (product number: AK71, Cosmo Bio Co., Ltd.), respectively. The assay was performed according to the manufacturer's protocol using saclipin A and saclipin B purified from Suizenji-nori. However, since saclipin was not dissolved in the attached aqueous buffer solution, it was dissolved in dimethyl sulfoxide (DMSO) and subjected to an experiment. The final reaction concentration of the sample was adjusted to 0 mM, 0.5 mM, 1.0 mM, 2.0 mM, and 4.0 mM.

A further data set relates to collagen. Put plainly: Collagen anti-glycation assay kit. The data set is classed as biochemical. Conditions: sample dissolved in DMSO; read-out: IC50 value, inhibition effect on glycation of collagen. As to the method: as §1, §2
Data set [3] has as its system neonatal human dermal fibroblasts (NHDF). Put plainly: MTT test on neonatal human dermal fibroblasts (biocompatibility test). The data set is classed as cell-based. As to conditions: compared with 1% ethanol control; for appearance of cells (microphotographs): 10.0 µM; for cytotoxicity (cell viability, MTT): 0.1 to 10.0 µM. The method, then:
(§3) In order to examine the cytotoxicity of saclipin A and saclipin B, MTT tests were performed on (1) neonatal human dermal fibroblasts and (2) human keratinocytes.
(§4) The neonatal human dermal fibroblasts (NHDF) were purchased from ATCC. The neonatal human dermal fibroblasts were seeded in 96-well plates at 1×10^4 cells/well. Neonatal human dermal fibroblasts were cultured overnight at 37°C, 5% CO2 using Dulbecco's modified eagle medium (DMEM) in which 10% fetal bovine serum, […], and 10 mM HEPES were added to DMEM. 0.1 µM, 0.36 µM, 1.0 µM, 3.6 µM, and 10.0 µM of saclipin A or saclipin B were added to each cell. As a control, 1% ethanol was added to the cells. Next, 0.5 mg/mL MTT(3-(4,5-dimethylthiazole-2-yl)-2,5-diphenyltetrazolium bromide) was added, and the mixture was cultured for 20 hours at 37°C, 5% CO2. The whole formazan crystals were dissolved in dimethyl sulfoxide (DMSO), and then the absorbance of each sample solution was measured at 540 nm to determine the cell viability.
The upper part of Fig. 12 is a graph showing the results of cell viability (%). The labels on the horizontal axis represent each sample corresponding to the bar graph. For example, the labels "saclipin A" "10.00" represent that the cells were treated with 10.0 µM saclipin A. The vertical axis represents the cell viability when the cell viability of cells treated with 1% ethanol is taken as 100%.

The next data set concerns PSVK1 cells. In words: MTT test on human keratinocytes (biocompatibility test). Conditions: compared with 1% ethanol control; for appearance of cells (microphotographs): 10.0 µM; for cytotoxicity (cell viability, MTT): 0.1 to 10.0 µM. The data set is classed as cell-based. The method, then:
as §3, §4
PSVK1 cells (JCRB1093, JCRB Cell Bank, National Institute of Biomedical Innovation, Health and Nutrition, Japan) were used as human keratinocytes. In this test, the test was carried out in the same manner as in "(1) MTT test on neonatal human dermal fibroblasts" described above except that the cells were cultured using a keratinocyte medium (Thermo Fisher Scientific) supplemented with 0.05 mg/mL bovine pituitary extract, 0.005 µg/mL epidermal growth factor, 100 units/mL penicillin, and 100 µg/mL streptomycin (Gibco).
The upper part of Fig. 13 is a graph showing the results of cell viability (cell viability, %). The labels on the horizontal axis represent each sample corresponding to each bar graph. For example, the labels "saclipin A" "10.00" represent that the cells were treated with 10.0 µM saclipin A. The vertical axis represents the cell viability when the cell viability of cells treated with 1% ethanol is taken as 100%.

A short description of data set [4]: Absorption spectrum analysis (ultraviolet absorption). The data set is classed as physicochemical. Conditions: methanol solution; for Molar absorption coefficient: at the absorption maximum. As to the method: The obtained dried sample was dissolved in methanol, and subjected to absorption spectrum analysis, high-resolution mass spectrometry, and measurement of ^1H and ^13C-NMR spectra. In each graph of Fig. 3, the horizontal axis represents wavelength (nm), and the vertical axis represents relative absorbance.
The absorption spectra of "saclipin A (Sac A)", "saclipin B (Sac B)", "methyl-esterified saclipin A (Sac A_methyl ester)", and "methyl-esterified saclipin B (Sac B_methyl ester)" were acquired by the method described in "2. Structure determination of saclipin A and saclipin B" described above. In each graph of Fig. 11, the horizontal axis represents wavelength (nm), and the vertical axis represents relative absorbance. The maximum point of saclipin A was 317 nm. The maximum point of methyl-esterified saclipin A was 316 nm. The maximum point of saclipin B was 319 nm. The maximum point of methyl-esterified saclipin B was 319 nm.

Data set [5] in a line: Photoisomerization by light irradiation, HPLC analysis. Type of data set: physicochemical. Conditions: for time for which the amount ratio of saclipin A and saclipin B did not change: dark treatment after light irradiation. The method, then:
Saclipin A purified from dried Suizenji-nori was dissolved in methanol, ethanol or acetonitrile, and the solution was irradiated with light of 6000 lux under a white fluorescent lamp for 24 hours or longer. Thereafter, HPLC analysis was performed under the following measurement conditions to calculate the amounts of saclipin A and saclipin B, and the isomerization rate of saclipin A was calculated. The chromatogram of the saclipin A solution before light irradiation is shown on the left in Fig. 6, and the chromatogram of the saclipin A solution after light irradiation is shown on the right in Fig. 6.
• Detection wavelength: 320 nm • Column: Inerteil ODS-P 3 µm, 4.6×33 + 4.6×150 mm • Eluent: 50% Acetonitrile (isocratic)

[6] abbreviates: reaction time 20 min, read-out: IC50 value (µM) 20 min.
Setting [7] is: reaction time 40 min, read-out: IC50 value (µM) 40 min.

The term IC50 denotes the point on the concentration scale where inhibition reaches its midpoint. `O=C1O[C@H]([C@@H](O)CO)C(O)=C1O` [Ascorbic acid, reference compound]: the concentration for half-maximal inhibition (IC50) in data set [1] (setting [6]) was 7.9 µM; in data set [1] (setting [7]), 7.5 µM. In addition, in data set [1], the β/α value is 0.95. Besides, the “temporal change of radical scavenging” value in data set [2] is on record as “hardly functioned after a radical scavenging reaction occurred immediately after addition”.
Taken in the same sequence, the figures for `Cc1c(C)c2c(c(C)c1O)CCC(C)(C(=O)O)O2` (centres unmarked) [Trolox, 6-hydroxy-2,5,7,8-tetramethylchroman-2-carboxylic acid, reference compound] were 6.7 µM, 6.7 µM, 1.00 and “hardly functioned after a radical scavenging reaction occurred immediately after addition”.
As for `N=C(N)NN` [aminoguanidine, reference compound], the IC50 amounted to 1500 µM with elastin and 2400 µM in the data set on collagen.
Turning to `CCC(=O)/C=C/C=C/C=C/C(=O)CCCCCCCC(=O)O` [saclipin A, (10E,12E,14E)-9,16-Dioxooctadeca-10,12,14-trienoic acid], the IC50 was 974 µM in data set [1] (setting [6]), 717 µM in data set [1] (setting [7]), 2500 µM with elastin and 1900 µM with collagen. The β/α value in data set [1] was 0.78. Further, in data set [2], the “temporal change of radical scavenging” value was “proceeded even after 2900 seconds”. Also, the “appearance of cells (microphotographs)” value (in data set [3]; in the data set on PSVK1 cells) was “no abnormality was observed” in each case. Besides, the “cytotoxicity (cell viability, MTT)” value (in data set [3]; in the data set on PSVK1 cells) was “not higher than that of 1% ethanol at any concentration” in each case. Further, in data set [4], the Molar absorption coefficient is reported as 26,454 M^-1cm^-1. The results for the Absorption maximum in data set [4] and in data set [4] (listed as Saclipin A) were 317 nm and 316 nm, respectively. Besides, the “time for which the amount ratio of saclipin A and saclipin B did not change” value in data set [5] was “at least 96 hours”. Also, the “dissolved saclipin A converted to saclipin B” value in data set [5] (methanol, ethanol or acetonitrile, 6000 lux white fluorescent lamp, 24 hours or longer) is recorded as “About 90%”.
Turning to `CCC(=O)/C=C/C=C\C=C\C(=O)CCCCCCCC(=O)O` [saclipin B, (10E,12Z,14E)-9,16-Dioxooctadeca-10,12,14-trienoic acid], the IC50 in data set [1] (setting [6]) is 182 µM; in data set [1] (setting [7]), 142 µM; in the data set on collagen, 900 µM. Besides, in data set [1], the β/α value came to 0.74. Further, in data set [2], the “temporal change of radical scavenging” value is given as “proceeded even after 2900 seconds”. Moreover, the “glycation reaction inhibited (elastin)” value in the data set with elastin (concentration of 4 mM) is “about 45%”. For the same compound, the “appearance of cells (microphotographs)” value (in data set [3]; with PSVK1 cells) was “no abnormality was observed” each time. Besides, the “cytotoxicity (cell viability, MTT)” value (in data set [3]; in the data set on PSVK1 cells) was “not higher than that of 1% ethanol at any concentration” each time. For the same compound, in data set [4], the Molar absorption coefficient is 30,555 M^-1cm^-1. Also, the Absorption maximum in data set [4] amounted to 319 nm. The “time for which the amount ratio of saclipin A and saclipin B did not change” value in data set [5] was “at least 96 hours”.

Source of the values: patent EP4748903A1, “ULTRAVIOLET ABSORBER, ANTIOXIDANT, ANTI-GLYCATION AGENT, EXTERNAL PREPARATION FOR SKIN, COSMETIC, METHOD FOR PRODUCING COMPOUND, AND COMPOUND” (Meijo University, priority 2023, dated 2025).
